One data set deals with P. vulgaris, 08601. The data set is described as follows: Antibacterial activity MIC, Japanese Society of Chemotherapy standard procedure. Format: cell-based. To be noted: Proteus vulgaris.
The subject of a further data set is E. faecalis, ATCC 19433. The description is as above. To be noted: Enterococcus faecalis, ATCC19433.
In a further data set the test system is S. aureus, 87037. The data set is described as above. To be noted: Staphylococcus aureus.
The subject of another data set is P. aeruginosa, 32104. The data set is described as above. Conditions: Pseudomonas aeruginosa.
The test system of a further data set is S. marscecens, 10100. Described as above.
The subject of the next data set is E. coli NIHJ. Described as above. To be noted: Escherichia coli.
The next data set concerns P. aeruginosa, 32121. Described as above. To be noted: Pseudomonas aeruginosa.
For another data set, the system named is S. epidermidis, 56500. The description is as above. To be noted: Staphylococcus epidermidis.
Another data set has as its system S. aureus, 209P. The description is as above. Conditions: Staphylococcus aureus.
In the next data set the test system is S. pneumoniae, J24. The data set is described as above. To be noted: Streptococcus pneumoniae.
The nature of data set [1]: Crystal stability on storage at controlled relative humidity. Format: physicochemical. To be noted: 25° C., 3 days. Here is the method: Weight change and crystalline form were examined as to 7-[(7S)-7-amino-7-methyl-5-azaspiro[2.4]heptan-5-yl-6-fluoro-1-[(1R,2S)-2-fluorocyclopropyl]-8-methoxy-1,4-dihydro-4-oxoquinoline-3-carboxylic acid hemihydrate obtained in Example 1 by being stored under the condition of 0, 52 or 93% of relative humidity, at 25° C. for 3 days. The crystalline form was evaluated by measuring with powder X-ray diffraction and thermal analysis.

The nature of data set [2]: Change in moisture sorption and desorption after thermal dehydration. Format: physicochemical. Conditions: thermal dehydration (60° C.); FIG. 6. How it is done: Change in moisture sorption and desorption after thermal dehydration (60° C.) was examined for 7-[(7S)-7-amino-7-methyl-5-azaspiro[2.4]heptan-5-yl]-6-fluoro-1-[(1R,2S)-2-fluorocyclopropyl]-8-methoxy-1,4-dihydro-4-oxoquinoline-3-carboxylic acid hemihydrate obtained in Example 1.

Another data set deals with E. coli E77156 strain. Nature of the data set: Therapeutic efficacy in rat simple cystitis model (E. coli). Format: in vivo. To be noted: orally once at 5, 20 and 80 mg/kg on the next day of infection, in comparison with the count at beginning of the treatment, FIG. 2.
Data set [3] is described as follows: Change in crystalline form after thermal dehydration. Format: physicochemical. Conditions: X-ray diffraction on thermal treatments; FIG. 7. An excerpt:
Change in crystalline form by thermal treatment was examined for 7-[(7S)-7-amino-7-methyl-5-azaspiro[2.4]heptan-5-yl]-6-fluoro-1-[(1R,2S)-2-fluorocyclopropyl]-8-methoxy-1,4-dihydro-4-oxoquinoline-3-carboxylic acid hemihydrate obtained in Example 1.

Data set [4] deals with Mycobacterium tuberculosis (sensitive bacteria). The data set is described as follows: Anti-mycobacterium tuberculosis activity MIC, sensitive bacteria. Format: cell-based.
Data set [5] is classed as physicochemical. Here is the method:
7-[(7S)-7-amino-7-methyl-5-azaspiro[2.4]heptan-5-yl]-6-fluoro-1-[(1R,2S)-2-fluorocyclopropyl]-8-methoxy-1,4-dihydro-4-oxoquinoline-3-carboxylic acid hemihydrate obtained in Example 1 was each stored for 2 weeks under wet heat condition (40° C., 75% RH), dry heat condition (50° C., of 0% RH) and photo irradiation condition.

A short description of data set [6]: Moisture sorption and desorption behavior. Format: physicochemical. To be noted: atmospheric pressure type automatic water vapor adsorption device; FIG. 5. The text has this:
Moisture sorption and desorption behavior was examined with an atmospheric pressure type automatic water vapor adsorption device for 7-[(7S)-7-amino-7-methyl-5-azaspiro[2.4]heptan-5-yl]-6-fluoro-1-[(1R,2S)-2-fluorocyclopropyl]-8-methoxy-1,4-dihydro-4-oxoquinoline-3-carboxylic acid hemihydrate obtained in Example 1.

≈ marks a conversion by molar mass, not a printed value. Bounds are passed on as bounds.

These results are taken from US8003666B2, “Hydrate for medical purposes” (priority 2006, dated 2011).

For `O=C(O)c1cn(C2CC2)c2cc(N3CCNCC3)c(F)cc2c1=O` [CPFX, ciprofloxacin], the minimum inhibitory concentration (MIC) in the data set with P. vulgaris, 08601 is no more than 0.003 µg/mL; with E. faecalis, ATCC 19433, 0.78 µg/mL (≈ 2.35 µM); in the data set with S. aureus, 87037, greater than 6.25 µg/mL; against P. aeruginosa, 32104, 0.05 µg/mL (≈ 0.151 µM); against S. marscecens, 10100, 0.025 µg/mL (≈ 0.0754 µM); against E. coli NIHJ it was no more than 0.003 µg/mL. The minimum inhibitory concentration (MIC) turned out to be 0.025 µg/mL (≈ 0.0754 µM) in the data set with P. aeruginosa, 32121; 0.2 µg/mL (≈ 0.604 µM) against S. epidermidis, 56500; 0.1 µg/mL (≈ 0.302 µM) against S. aureus, 209P; 0.39 µg/mL (≈ 1.18 µM) against S. pneumoniae, J24.
`COc1c(N2CCNC(C)C2)c(F)cc2c(=O)c(C(=O)O)cn(C3CC3)c12` (centres unmarked) [GTFX, gatifloxacin]: the MIC against P. vulgaris, 08601 was determined as 0.006 µg/mL (≈ 0.016 µM); in the data set on E. faecalis, ATCC 19433 it was 0.39 µg/mL (≈ 1.04 µM); in the data set with S. aureus, 87037, 1.56 µg/mL (≈ 4.16 µM); against P. aeruginosa, 32104, 0.2 µg/mL (≈ 0.533 µM); against S. marscecens, 10100, 0.1 µg/mL (≈ 0.266 µM); against E. coli NIHJ, 0.006 µg/mL (≈ 0.016 µM). Also, the MIC against P. aeruginosa, 32121 is 0.1 µg/mL (≈ 0.266 µM); against S. epidermidis, 56500, 0.2 µg/mL (≈ 0.533 µM); with S. aureus, 209P, 0.05 µg/mL (≈ 0.133 µM); with S. pneumoniae, J24 it was 0.2 µg/mL (≈ 0.533 µM).
For the compound `COc1c(N2CC3(CC3)[C@](C)(N)C2)c(F)cc2c(=O)c(C(=O)O)cn([C@@H]3C[C@@H]3F)c12` [Hemihydrate, 7-[(7S)-7-Amino-7-methyl-5-azaspiro[2.4]heptan-5-yl]-6-fluoro-1-[(1R,2S)-2-fluorocyclopropyl]-8-methoxy-1,4-dihydro-4-oxoquinoline-3-carboxylic acid hemihydrate], the MIC against P. vulgaris, 08601 is 0.025 µg/mL; in the data set with E. faecalis, ATCC 19433, 0.2 µg/mL; against S. aureus, 87037 it was 0.78 µg/mL; in data set [4] (H37RV, strain H37Rv), 0.03 µg/mL; in [4] (strain Kurono), 0.03 µg/mL; in data set [4] (strain Ravenel) it was 0.03 µg/mL. The minimum inhibitory concentration (MIC) in [4] (strain TB-s 2), in [4] (strain TB-s 3), in data set [4] (strain TB-s 4), in data set [4] (strain TB-s 5), in data set [4] (strain TB-s 6) and in data set [4] (strain TB-s 7) was 0.06 µg/mL in each case. Besides, the minimal inhibitory concentration (MIC) stood at 0.03 µg/mL in [4] (strain TB-s 8); 0.06 µg/mL in [4] (strain TB-s 9); 0.03 µg/mL in data set [4] (strain TB-s 10); 0.06 µg/mL in data set [4] (strain TB-s 11); 0.125 µg/mL in data set [4] (strain TB-s 12); 0.06 µg/mL in data set [4] (strain TB-s 13). In addition, the minimal inhibitory concentration (MIC) in data set [4] (strain TB-s 14), in data set [4] (strain TB-s 15), in [4] (strain TB-s 16), in [4] (strain TB-s 17), in data set [4] (strain TB-s 18) and in data set [4] (strain TB-s 19) was 0.06 µg/mL throughout. For the same compound, the MIC in [4] (strain TB-s 20) amounted to 0.06 µg/mL; in data set [4] (strain TB-s 21), 0.06 µg/mL; in data set [4] (strain TB-s 22), 0.03 µg/mL; in the data set on P. aeruginosa, 32104, 0.39 µg/mL; in the data set with S. marscecens, 10100, 0.1 µg/mL; with E. coli NIHJ, 0.025 µg/mL. For the same compound, the MIC was 0.2 µg/mL with P. aeruginosa, 32121; 0.1 µg/mL against S. epidermidis, 56500; 0.025 µg/mL against S. aureus, 209P; 0.1 µg/mL against S. pneumoniae, J24. For the same compound, the figures for the “Weight Change (%)” value in data set [1] (0% RH), in [1] (52% RH) and in data set [1] (93% RH) were 0.00%, 0.43% and 0.61%, respectively. Besides, in data set [1] (0, 52 or 93% relative humidity, powder X-ray diffraction and thermal analysis), the “Crystalline form after storage” value is recorded as “the crystalline form did not change”. For the same compound, the “Moisture sorption and desorption after thermal dehydration” value in data set [2] was “rehydrated rapidly after being dehydrated”. Moreover, the “Bacterial count in the bladder” value in the data set with E. coli E77156 strain is recorded as “statistically significant decrease in bacterial count”. Also, the “Crystalline form after thermal dehydration” value in data set [3] was “had its crystalline state even after being dehydrated”. The “Observation under photo irradiation condition” value in [5] (photo irradiation condition) is “color change and some decrease in remaining ratio”. Also, in [5] (wet heat (40° C., 75% RH) and dry heat (50° C., 0% RH), 2 weeks), the “Content under wet heat and dry heat condition” value is “stable and its content was not decreased”. In data set [6], the “Weight change as humidity changes” value is no more than 1%.
For `C[C@H]1COc2c(N3CCN(C)CC3)c(F)cc3c(=O)c(C(=O)O)cn1c23` [LVFX, levofloxacin], the MIC against P. vulgaris, 08601 was 0.012 µg/mL (≈ 0.0332 µM); in the data set with E. faecalis, ATCC 19433, 0.78 µg/mL (≈ 2.16 µM); in the data set on S. aureus, 87037, greater than 6.25 µg/mL; in the data set on P. aeruginosa, 32104, 0.2 µg/mL (≈ 0.553 µM); in the data set with S. marscecens, 10100 it was 0.1 µg/mL (≈ 0.277 µM); in the data set on E. coli NIHJ, 0.012 µg/mL (≈ 0.0332 µM). Also, the MIC in the data set with P. aeruginosa, 32121 stood at 0.1 µg/mL (≈ 0.277 µM); in the data set on S. epidermidis, 56500, 0.39 µg/mL (≈ 1.08 µM); in the data set on S. aureus, 209P, 0.2 µg/mL (≈ 0.553 µM); against S. pneumoniae, J24, 0.78 µg/mL (≈ 2.16 µM).
For the compound `CO[C@H]1/C=C/O[C@@]2(C)Oc3c(C)c(O)c4c(O)c(c(/C=N/N5CCN(C)CC5)c(O)c4c3C2=O)NC(=O)/C(C)=C\C=C\[C@H](C)[C@H](O)[C@@H](C)[C@@H](O)[C@@H](C)[C@H](OC(C)=O)[C@@H]1C` [RFP, rifampicin], the MIC amounted to 0.125 µg/mL (≈ 0.152 µM) in [4] (H37RV, strain H37Rv); 0.06 µg/mL (≈ 0.0729 µM) in data set [4] (strain Kurono); 0.125 µg/mL (≈ 0.152 µM) in data set [4] (strain Ravenel); 0.03 µg/mL (≈ 0.0365 µM) in [4] (strain TB-s 2); 0.125 µg/mL (≈ 0.152 µM) in data set [4] (strain TB-s 3); 0.06 µg/mL (≈ 0.0729 µM) in [4] (strain TB-s 4). Further, the minimum inhibitory concentration (MIC) in [4] (strain TB-s 5) was 0.06 µg/mL (≈ 0.0729 µM); in [4] (strain TB-s 6) it was 0.125 µg/mL (≈ 0.152 µM); in data set [4] (strain TB-s 7) it was 0.06 µg/mL (≈ 0.0729 µM); in data set [4] (strain TB-s 8), 0.015 µg/mL (≈ 0.0182 µM); in data set [4] (strain TB-s 9), 0.06 µg/mL (≈ 0.0729 µM); in [4] (strain TB-s 10) it was 0.06 µg/mL (≈ 0.0729 µM). Further, the MIC in [4] (strain TB-s 11) amounted to 0.06 µg/mL (≈ 0.0729 µM); in data set [4] (strain TB-s 12), 0.125 µg/mL (≈ 0.152 µM); in data set [4] (strain TB-s 13) it was 0.06 µg/mL (≈ 0.0729 µM); in data set [4] (strain TB-s 14), 0.03 µg/mL (≈ 0.0365 µM); in data set [4] (strain TB-s 15), 0.06 µg/mL (≈ 0.0729 µM); in [4] (strain TB-s 16), 0.06 µg/mL (≈ 0.0729 µM). Further, the MIC stood at 0.06 µg/mL (≈ 0.0729 µM) in [4] (strain TB-s 17); 0.03 µg/mL (≈ 0.0365 µM) in [4] (strain TB-s 18); 0.125 µg/mL (≈ 0.152 µM) in [4] (strain TB-s 19); 0.25 µg/mL (≈ 0.304 µM) in data set [4] (strain TB-s 20); 0.03 µg/mL (≈ 0.0365 µM) in data set [4] (strain TB-s 21); 0.015 µg/mL (≈ 0.0182 µM) in data set [4] (strain TB-s 22).
